Entries after “also recorded” stand apart in the source; their conditions may differ.

The test system of data set [1] is peripheral serotonin. Nature of the data set: Peripheral serotonin levels in wild-type mice (Example 11). The data set is classed as in vivo. The following applies: 5 mice per compound. The procedure: (§1) Serotonin serum levels were quantified using immunoassay kits from Fitzgerald (Serotonin) and serotonin levels in the different regions of the brain were quantified by HPLC method as described previously (Mann et al., 1992, Arch. Gen. Psychiatry 49:442-446).
The following three compounds were tested for their ability to effect peripheral serotonin levels in wild-type mice:
Also tested as a negative control was vehicle alone. Each compound as well as vehicle was administered to 5 mice and the resulting peripheral serotonin levels were as follows: […]

The target of a further data set is rb 5-HT1B receptors (Oryctolagus cuniculus, UniProt P49144). The following applies: cited from earlier work.
In data set [2] the test system is peripheral serotonin. The experiment in a line: Effect of CBMIDA and pCPA on peripheral (serum) serotonin in mice (Example 1). Format: in vivo. The following applies: for reduction of peripheral (serum) serotonin: 250 mg/kg orally. On the procedure:
One month old C57B1/6 inbred male mice, weighing 15-16 g were used in the experiments. Animals were housed under 12 h light/12 h dark conditions in a room with controlled temperature (22° C.) and humidity (60%). Mice had ad libitum access to food and water, and were used after a minimum of 4 days of acclimatization to the housing conditions. All experiments were conducted following Columbia University Guidelines for the Animal Use and Care of laboratory mice.
(§2) Before the experiments, animals were separated into individual cages one day prior to the experiment. Compounds were fed orally (gavage) to the mouse, calculated according to the weight of the mouse, twice a day at 1700 h and at 1100 h. […] This route created two potential barriers for the compound to reach the brain. […] Control animals received the same volume of vehicle. Blood was collected through heart puncture on isofluorane-anaesthesized animals and allowed to clot for 5 minutes on ice. The serum was separated, snap chilled in liquid nitrogen and frozen at −80° C. till analyzed. Brainstems from all the animals were collected and processed for brain serotonin measurement through HPLC.
The Serotonin ELISA kit obtained from the Fitzgerald company was used to measure derivatized serotonin from serum. Derivatization is part of the sample preparation. Serotonin present in the serum was first quantitatively acylated into N-Acylserotonin using the acylation reagent. The principle of the assay is based on competitive ELISA, wherein serotonin that is bound to the solid phase of the plate and the N-acylserotonin compete for the fixed number of antiserum binding sites. When the reaction is in equilibrium, free antigen and free antigen-antiserum complexes are removed by washing.
The antibody bound to the solid phase serotonin is then detected using antirabbit/peroxidase. The substrate TMB/Peroxidase reaction is read at 450 nm. The amount of antibody bound to the solid phase serotonin is inversely proportional to the concentration of serotonin in the sample.
Catechol-3,6-bis methyleneiminodiacetic acid (CBMIDA) (basic structure is an EDTA-like compound and the catechol ring is at the centre) synthesized at the Columbia University Chemistry division, and para-chlorophenylalanine (pCPA) obtained from Sigma Aldrich Corp. were used. Each compound was dissolved with twice molar solution of NaHCO3 in water and given to mouse orally at 250 and 500 mg/kg/dose.

The subject of a further data set is brain serotonin. Nature of the data set: Brain serotonin / blood brain barrier after oral pCPA in mice. Format: in vivo. The following applies: 250 mg/kg orally. The procedure: as §2
For the next data set, the system named is Lrp5−/− mice. Nature of the data set: pCPA treatment of Lrp5−/− and WT mice. Format: in vivo. The procedure: Consistent with the conclusion that the increase in serum serotonin level is responsible fully or partly for the bone phenotype of the Lrp5−/− mice is the discovery that pCPA, a serotonin synthesis inhibitor (Eldridge et al., 1981, Ann. Rev. Physiol. 43:121-135), prevented the appearance of the Lrp5−/− bone phenotype by decreasing serotonin production. WT and Lrp5−/− mice were treated with 300 mg/kg pCPA intraperitoneally three times per week, from 3 weeks to 12 weeks of age (FIG. 7A) and the changes in serum serotonin levels, TPH1 expression in gut and TPH2 expression in brain stem were analyzed. Bone histomorphometry was also performed. […] This rescue of the Lrp5−/− phenotype was achieved by normalization of the gut TPH1 mRNA and of serum serotonin levels (FIGS. 7C and 7D).
Generation of Lrp5−/− (Kato et al., 2002, J. Cell Biol. 157:303-314) β-cateninfloxed/floxed (Glass et al., 2005, Dev. Cell 8:751-764), α1(I)collagen-cre transgenic (Dacquin et al., 2002, Dev. Dyn. 224:245-251) and Htt−/− (Ansorge et al., 2008, J. Neurosci. 28:199-207) mice were as described previously. Lrp5+/−;Htt+/− double heterozygous mice were generated by crossing Lrp5+/− and Htt+/− mice. Three week-old Wt or Lrp5−/− mice were administered pCPA on alternate days for 9 weeks by i.p. All animal protocols were approved by the Animal Care Committees of Columbia University.
Static histomorphometry measurements were performed as previously described in accordance with standard nomenclature, using the Osteomeasure Analysis System (Osteometrics, Inc) (Ducy et al., 2000, Cell 100:197-207). Four to 9 animals were assigned per group.
as §1

The subject of a further data set is primary osteoblasts. Nature of the data set: Real-time PCR of gene expression in primary osteoblasts treated with serotonin. The data set is classed as cell-based, mouse. The following applies: serotonin 50 to 100 μM, 24 hr. The procedure: Calvaria osteoblasts were extracted by triple collagenase/trypsine digestion from 4 day-old CD1 pups and differentiated with ascorbic acid as previously described (Duey et al., 2000, Cell 100:197-207).
(§3) Osteoblasts were treated in serum-free medium with vehicle or Serotonin (50 to 100 μM, Sigma) for 24 hr. Total RNA were extracted with Trizol (Invitrogen). cDNA were generated using the ABI Reverse transcriptase system and random hexanucleotide primers. Real-time PCR was performed using superarray primers on a Stratagene real time PCR cycler and Actin expression was used as endogenous control. Chromatin immunoprecipitation assays (ChIP) were performed by standard procedures using primary osteoblasts. Microarray analysis was performed as described previously (Glass et al., 2005, Dev. Cell 8:751-764).

The subject of the next data set is CREB. The experiment in a line: CREB phosphorylation (Western blot) and CREB binding to Cyclin D1 promoter (ChIP) in primary osteoblasts. The data set is classed as cell-based, mouse. On the procedure:
as §3
Osteoblasts were treated in serum-free medium with vehicle or Serotonin (50 to 100 μM, Sigma) for 24 hr. Lysates from primary osteoblasts or crushed frozen bones were prepared in RIPA buffer in the presence of protease and phosphatase inhibitors. Twenty to 60 μg of proteins were separated by SDS-PAGE in reducing conditions and transferred on nitrocellulose membrane using standard protocols. Membranes were incubated with primary antibodies including total or anti-Phospho CREB (Cell Signaling Technology).

Another data set concerns ovariectomized rats. Nature of the data set: Curative regimen in ovariectomized rats (histomorphometry, μCT, biomechanical testing). The following applies: OVX rats. Format: in vivo. On the procedure: Virgin female Sprague-Dawley rats (National Institute of Nutrition, Hyderabad, India) were obtained at 3 months of age and allowed to acclimate to the facility for 1 week before study initiation and surgical procedures. They were housed under a 12 hour:12 hour light:dark cycle and provided throughout the study with water and PMI (Purina Mills, Incorporated) Certified Rodent Laboratory Chow. Rats were subjected to either bilateral ovariectomy or a sham operation under isoflurane anesthesia. […] The rats were divided into two groups of sham-operated and ovariectomized animals and left untreated for 3 weeks to allow bone loss to occur. One group of sham and one group of ovariectomized rats (n=10/group) were killed as baseline controls to determine bone loss before the start of LP-533,401 or PTH administration. The remaining animals (n=5-10/group) received vehicle or LP-533,401 (250 mg/kg/day) by gavage, or recombinant human PTH (80 ug/kg) by daily subcutaneous (s.c.) injection for 4 weeks. The 80 ug/kg dose of PTH was selected as being optimal for reversal of ovariectomy-induced bone loss in rats based on previous studies, while the dose of LP-533,401 was selected based on the effective dose for bone loss-reversal observed in mice experiments. To label bone-forming surfaces, animals were injected s.c. with calcein (8 mg/kg) at 10 and 3 days before death. Animals were killed by an overdose of Isofluorane anesthesia. The right tibia and lumbar vertebra 2 (L2) were collected, cleaned of excess soft tissue, fixed overnight in 10% formalin and processed for μCT or histomorphometric analysis. The right femur and L3 were cleaned of excess tissue and stored at −20° C. prior to biomechanical testing.
Bone histomorphometry was performed as previously described (Duey et al., 2000, Cell 100:197-207; Takeda et al., 2002, Cell 111:305-317; Parfitt et al., 1987, J. Bone Miner. Res. 2:595-610). Briefly, lumbar vertebrae were dissected, fixed for 24 hr in 10% formalin, dehydrated in graded ethanol series, and embedded in methyl methacrylate resin according to standard protocols (Parfitt et al., 1987, J. Bone Miner. Res. 2:595-610). Von Kossa/Von Gieson staining was performed using 7 μm sections for bone volume over tissue volume (BV/TV) measurement. Bone formation rate (BFR) was analyzed by the calcein double-labeling method (Ducy et al., 2000, Cell 100:197-207). Calcein (Sigma Chemical Co., St. Louis, Mo.) was dissolved in calcein buffer (0.15 M NaCl, 2% NaHCO3) and injected twice at 0.125 mg/g body weight on day 1 and 4, and then mice were killed on day 6. Unstained 4 μm sections were used for bone formation rate (BFR) measurements. For the analysis of parameters of osteoblasts and osteoclasts, 4 μm sections were stained with toluidine blue and tartrate-resistant acid phosphatase (TRAP), respectively (2). Histomorphometric analyses were performed using the Osteomeasure Analysis System (Osteometrics, Atlanta, Ga.).
Trabecular bone architecture of proximal tibia was assessed using a micro computed tomography (μCT) system (VivaCT 40, SCANCO Medical AG, Bassersdorf, Switzerland). Tibia bone specimen was stabilized with gauze in a 2 ml centrifuge tube filled with 70% ethanol and fastened in the specimen holder of the μCT scanner. One hundred μCT slices, corresponding to a 1.05 mm region distal from the growth plate, were acquired at an isotropic spatial resolution of 10.5 μm. A global thresholding technique was applied to binarize gray-scale μCT images where the minimum between the bone and bone marrow peaks in the voxel gray value histogram was chosen as the threshold value. The trabecular bone compartment was segmented by a semi-automatic contouring method and subjected to a model-independent morphological analysis (Hildebrand et al., 1999, J. Bone Miner. Res. 14:1167-1174) by the standard software provided by the manufacture of the μCT scanner. […]

Where [3] appears, read: 300 mg/kg i.p. three times per week, 3 to 12 weeks of age.
Where [4] appears, read: LP-533,401 250 mg/kg/day, PTH 80 μg/kg/day.

Chain of rb 5-HT1B receptors (P49144 whole entry): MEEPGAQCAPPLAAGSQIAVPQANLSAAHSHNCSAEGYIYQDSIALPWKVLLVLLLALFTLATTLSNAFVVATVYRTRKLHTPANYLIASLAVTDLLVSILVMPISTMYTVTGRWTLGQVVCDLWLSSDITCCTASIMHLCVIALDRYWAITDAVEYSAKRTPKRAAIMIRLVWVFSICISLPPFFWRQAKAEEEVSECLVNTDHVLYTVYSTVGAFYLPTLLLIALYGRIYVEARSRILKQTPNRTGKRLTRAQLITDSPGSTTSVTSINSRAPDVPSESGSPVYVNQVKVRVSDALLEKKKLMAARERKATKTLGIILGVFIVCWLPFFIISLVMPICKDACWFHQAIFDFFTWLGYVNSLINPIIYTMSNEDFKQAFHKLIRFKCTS

For the molecule `COC(=O)C(=O)Nc1ccc(-c2cc(OC(c3ccc(-c4cccc(F)c4)cc3)C(F)(F)F)nc(N)n2)cc1` (stereo not drawn) [Methyl 2-(4-(2-amino-6-(2,2,2-trifluoro-1-(3′-fluorobiphenyl-4-yl)ethoxy)pyrimidin-4-yl)phenylamino)-2-oxoacetate], the “Peripheral serotonin (ng/ml) (mean ± SEM)” value with peripheral serotonin [1] came out at 23.76 ± 8.25 ng/mL.

As to `CSc1ccc2c(c1)C(N1CCN(C)CC1)Cc1ccccc1S2` (stereo not drawn) [methiothepin], at rb 5-HT1B receptors, the “behaviour at rb 5-HT1B receptors” value was “as silent, competitive antagonists”.

For `O=C(O)CN(CC(=O)O)Cc1ccc(CN(CC(=O)O)CC(=O)O)c(O)c1O` [CBMIDA, Catechol-3,6-bis methyleneiminodiacetic acid], the “reduction of peripheral (serum) serotonin” value with peripheral serotonin [2] (4 week old mice) is reported as approximately 45%. For the same molecule, in the data set on peripheral serotonin [2] (4 week old mice, 500 mg/kg orally twice in 20 hours), the “reduction of peripheral serotonin” value is “about 80%”. Also, in the data set with peripheral serotonin [2] (mice, 500 mg/kg orally twice daily), the “serotonin serum levels, decrease below normal” value amounted to 80 % below normal. For the same molecule, the peripheral serotonin result in the data set on peripheral serotonin [2] (oral feeding (FIG. 11)) is “reduces”.

With `NC(Cc1ccc(Cl)cc1)C(=O)O` (stereo not drawn) [pCPA, para-chlorophenylalanine], the “reduction of peripheral (serum) serotonin” value in the data set on peripheral serotonin [2] (4 week old mice) was approximately 50%. Moreover, in the data set with peripheral serotonin [2] (mice, oral, control inhibitor), the “serum serotonin levels, decrease below normal range” value was more than 60 % below normal range. In the data set on brain serotonin, the “crossing of the blood brain barrier” value was “did not cross the blood brain barrier” and the “serotonin in the brain” value is “did not decrease”. In the data set with Lrp5−/− mice (setting [3]), the “bone abnormalities (low bone phenotype) of Lrp5−/− mice” value is listed as “corrected” and the “bone mass in WT mice” value was “without overtly affecting”. The “gut TPH1 mRNA” value in the data set on Lrp5−/− mice (Lrp5−/− mice, 300 mg/kg i.p.) is on record as “normalization”. Besides, the serum serotonin levels result in the data set on Lrp5−/− mice (Lrp5−/− mice, 300 mg/kg i.p., 300 mg/kg) is “normalizes; also recorded: normalization”. Further, the “Brain TPH2 mRNA levels” value with Lrp5−/− mice (treated mice, 300 mg/kg i.p.) was “not affected”.

Turning to `NCCc1c[nH]c2ccc(O)cc12` [serotonin, 5-hydroxytryptamine], in the data set with primary osteoblasts, the “expression of Cyclin D1” value is reported as “decreased”, the “expression of Cyclin D2” value is recorded as “decreased”, the “expression of Osteocalcin” value is “not modified” and the “expression of Runx2” value is “not modified”. The “expression of Type I collagen” value in the data set on primary osteoblasts is “not modified”. In addition, in the data set with CREB, the CREB phosphorylation result is listed as “significantly decreased” and the “binding of CREB to the Cyclin D1 promoter (ChIP)” value was “decreased”.

As for `Nc1nc(OC(c2ccc(-c3cccc(F)c3)cc2)C(F)(F)F)cc(-c2ccc(OC[C@H](N)C(=O)O)cc2)n1` (stereo partly drawn) [(2S)-2-amino-3-(4-(2-amino-6-(2,2,2-trifluoro-1-(3′-fluorobiphenyl-4-yl)ethoxy)pyrimidin-4-yl)phenoxy)propanoic acid], in the data set on peripheral serotonin [1], the “Peripheral serotonin (ng/ml) (mean ± SEM)” value is 93.77 ± 12.15 ng/mL.

B1: PTH: recombinant human PTH, intermittent s.c. injections, standard to which bone anabolic agents are compared (protein, UniProt P01270 32-115, looked up)
Parathyroid hormone: SVSEIQLMHNLGKHLNSMERVEWLRKKLQDVHNFVALGAPLAPRDAGSQRPRKKEDNVLVESHEKSLGEADKADVNVLTKAKSQ
modifications: Parathyroid hormone
notes: recombinant human PTH, intermittent s.c. injections, standard to which bone anabolic agents are compared
B1: in the data set on ovariectomized rats, the “number of osteoclasts per bone surface (OcS/BS) versus untreated ovariectomized rats” value was “similar”. Also, in the data set with ovariectomized rats (setting [4]), the “decrease in cortical thickness at the femur mid-shaft” value is “equally rescued”; the “maximal load (femur, vertebra)” value is reported as “restored to values seen in sham-operated rats”; the “stiffness (femur, vertebra)” value is listed as “restored to values seen in sham-operated rats”.

(Values after patent US8614222B2, “Methods of preventing and treating low bone mass diseases” (The Trustees of Columbia University in the City of New York, priority 2008, dated 2013).)
